Measured values taken from patent publication US20260198498A1, “FUNGICIDAL COMPOSITIONS” (SYNGENTA CROP PROTECTION AG, priority 2022, published 2026).

Experiments:
Pyrenophora teres = assay: Example B18: Pyrenophora teres/Barley/Leaf Disc Preventative (Net Blotch); type: in vivo; settings: foliar, barley leaf segments, inoculated 2 days after application
Description: Example B18: Pyrenophora teres/Barley/Leaf Disc Preventative (Net Blotch)
Barley leaf segments cv. Hasso are placed on agar in a multiwell plate (24-well format) and sprayed with the formulated test compound diluted in water. The leaf segments are inoculated with a spore suspension of the fungus 2 days after application. The inoculated leaf segments are incubated at 20° C. and 65% rh under a light regime of 12 h light/12 h darkness in a climate cabinet and the activity of a compound is assessed as disease control compared to untreated when an appropriate level of disease damage appears in untreated check leaf segments (5-7 days after application).

[1] = system: Glomerella lagenarium (Colletotrichum lagenarium); assay: Example B5: Glomerella lagenarium (Colletotrichum lagenarium)/Liquid Culture (Anthracnose); type: cell-based; settings: Colletotrichum orbiculare, liquid culture, photometrically 3 to 4 days after application, read-out: control of Glomerella lagenarium
Description: Example B5: Glomerella lagenarium (Colletotrichum lagenarium)/Liquid Culture (Anthracnose)
(§1) Conidia of the fungus from cryogenic storage are directly mixed into nutrient broth (PDB potato dextrose broth). After placing a (DMSO) solution of test compound into a microtiter plate (96-well format), the nutrient broth containing the fungal spores is added. The test plates are incubated at 24° C. and the inhibition of growth is measured photometrically 3 to 4 days after application.

[2] = system: Monographella nivalis (Microdochium nivale); assay: Example B12: Monographella nivalis (Microdochium nivale)/Liquid Culture (Foot Rot Cereals); type: cell-based; settings: liquid culture, photometrically 4 to 5 days after application, read-out: control of Monographella nivalis
Description: Example B12: Monographella nivalis (Microdochium nivale)/Liquid Culture (Foot Rot Cereals)
as §1, with “is determined” for “is measured”, “photometrically 4” for “photometrically 3”, “to 5” for “to 4”

[3] = system: Mycosphaerella graminicola (Septoria tritici); assay: Example B21: Mycosphaerella graminicola (Septoria tritici)/Liquid Culture (Septoria Blotch); type: cell-based; settings: Zymoseptoria tritici, liquid culture, photometrically 4-5 days after application, read-out: control of Mycosphaerella graminicola
Description: Example B21: Mycosphaerella graminicola (Septoria tritici)/Liquid Culture (Septoria Blotch)
as §1, with “determined” for “measured”, “4-5” for “3 to 4”

[4] = system: Mycosphaerella arachidis (Cercospora arachidicola); assay: Example B13: Mycosphaerella arachidis (Cercospora arachidicola)/Liquid Culture (Early Leaf Spot); type: cell-based; settings: liquid culture, photometrically 4 to 5 days after application, read-out: control of Mycosphaerella arachidis
Description: Example B13: Mycosphaerella arachidis (Cercospora arachidicola)/Liquid Culture (Early Leaf Spot)
as §1, with “is determined” for “is measured”, “photometrically 4” for “photometrically 3”, “to 5” for “to 4”

[5] = system: Botryotinia fuckeliana (Botrytis cinerea); assay: Example B2: Botryotinia fuckeliana (Botrytis cinerea)/Liquid Culture (Gray Mould); type: cell-based; settings: liquid culture, growth inhibition photometrically 3 to 4 days after application, read-out: control of Botryotinia fuckeliana
Description: Example B2: Botryotinia fuceliana (Botrytis cinerea)/Liquid Culture (Gray Mould)
as §1, with “(Vogels” for “(PDB potato dextrose”, “determined” for “measured”

[6] = system: Phaeosphaeria nodorum (Septoria nodorum); assay: Example B11: Phaeosphaeria nodorum (Septoria nodorum)/Wheat/Leaf Disc Preventative (Glume Blotch); type: in vivo; settings: Parastagonospora nodorum, foliar, wheat leaf segments, inoculated 2 days after application
Description: Example B11: Phaeosphaeria nodorum (Septoria nodorum)/Wheat/Leaf Disc Preventative (Glume Blotch)
Wheat leaf segments cv. Kanzler are placed on agar in a multiwell plate (24-well format) and sprayed with the formulated test compound diluted in water. The leaf disks are inoculated with a spore suspension of the fungus 2 days after application. The inoculated test leaf disks are incubated at 20° C. and 75% rh under a light regime of 12 h light/12 h darkness in a climate cabinet and the activity of a compound is assessed as percent disease control compared to untreated when an appropriate level of disease damage appears in untreated check leaf disks (5-7 days after application).

Cc1c(C2CN(C(=O)c3nnc(-c4ccc(F)cc4F)o3)Cc3ccccc32)cnn1C (centres unmarked) [X.01, [5-(2,4-difluorophenyl)-1,3,4-oxadiazol-2-yl]-[4-(1,5-dimethylpyrazol-4-yl)-3,4-dihydro-1H-isoquinolin-2-yl]methanone]
≥ 80%: pest or weed control at 200 ppm (Pyrenophora teres) | inhibition of growth at 20 ppm [1] | inhibition of growth at 20 ppm [2] | inhibition of growth at 20 ppm [3]

CCCc1nnc(C(=O)N2Cc3ccccc3C(c3cnn(C)c3C)C2)s1 (centres unmarked) [X.03, [4-(1,5-dimethylpyrazol-4-yl)-3,4-dihydro-1H-isoquinolin-2-yl]-(5-propyl-1,3,4-thiadiazol-2-yl)methanone]
≥ 80%: inhibition of growth at 20 ppm [4] | inhibition of growth at 20 ppm [1] | inhibition of growth at 20 ppm [3]

Cc1c(C2CN(C(=O)c3nnc(C4CCCCC4)s3)Cc3ccccc32)cnn1C (centres unmarked) [X.04, (5-cyclohexyl-1,3,4-thiadiazol-2-yl)-[4-(1,5-dimethylpyrazol-4-yl)-3,4-dihydro-1H-isoquinolin-2-yl]methanone]
≥ 80%: inhibition of growth at 20 ppm [4] | inhibition of growth at 20 ppm [1] | inhibition of growth at 20 ppm [2] | inhibition of growth at 20 ppm [3]

COc1ccc2c(c1)[C@@H](c1cnn(C)c1)CN(C(=O)c1cc(-c3ccc(F)cc3F)on1)[C@H]2C [X.05, [5-(2,4-difluorophenyl)isoxazol-3-yl]-[(1S,4S)-6-methoxy-1-methyl-4-(1-methylpyrazol-4-yl)-3,4-dihydro-1H-isoquinolin-2-yl]methanone]
≥ 80%: inhibition of growth at 20 ppm [5] | inhibition of growth at 20 ppm [4] | inhibition of growth at 20 ppm [2] | inhibition of growth at 20 ppm [3]

Cn1cc([C@]2(C)CN(C(=O)c3nnc(-c4ccc(F)cc4F)s3)Cc3ccccc32)cn1 [X.06, [5-(2,4-difluorophenyl)-1,3,4-thiadiazol-2-yl]-[(4R)-4-methyl-4-(1-methylpyrazol-4-yl)-1,3-dihydroisoquinolin-2-yl]methanone]
≥ 80%: pest or weed control at 200 ppm [6] | inhibition of growth at 20 ppm [5] | pest or weed control at 200 ppm (Pyrenophora teres) | inhibition of growth at 20 ppm [4] | inhibition of growth at 20 ppm [1] | inhibition of growth at 20 ppm [2] | inhibition of growth at 20 ppm [3]

Cn1cc(C2(C)CN(C(=O)c3nnc(-c4ccc(F)cc4F)s3)Cc3ccccc32)cn1 (centres unmarked) [X.07, [5-(2,4-difluorophenyl)-1,3,4-thiadiazol-2-yl]-[4-methyl-4-(1-methylpyrazol-4-yl)-1,3-dihydroisoquinolin-2-yl]methanone]
≥ 80%: inhibition of growth at 20 ppm [5] | inhibition of growth at 20 ppm [4] | inhibition of growth at 20 ppm [1] | inhibition of growth at 20 ppm [2] | inhibition of growth at 20 ppm [3]

CC(=O)c1c(C2CN(C(=O)c3cc(-c4ccc(F)cc4F)on3)Cc3ccccc32)cnn1C (centres unmarked) [X.08, 1-[4-[2-[5-(2,4-difluorophenyl)isoxazole-3-carbonyl]-3,4-dihydro-1H-isoquinolin-4-yl]-2-methyl-pyrazol-3-yl]ethanone]
≥ 80%: pest or weed control at 200 ppm (Pyrenophora teres) | inhibition of growth at 20 ppm [4] | inhibition of growth at 20 ppm [1] | inhibition of growth at 20 ppm [2] | inhibition of growth at 20 ppm [3]

COC(=O)C1c2ccccc2C(c2cnn(C)c2)CN1C(=O)c1cc(-c2ccc(F)cc2F)on1 (centres unmarked) [X.09, methyl 2-[5-(2,4-difluorophenyl)isoxazole-3-carbonyl]-4-(1-methylpyrazol-4-yl)-3,4-dihydro-1H-isoquinoline-1-carboxylate]
≥ 80%: pest or weed control at 200 ppm [6] | inhibition of growth at 20 ppm [5] | inhibition of growth at 20 ppm [4] | inhibition of growth at 20 ppm [2] | inhibition of growth at 20 ppm [3]

Cn1cc(C2CN(C(=O)c3nnc(-c4ccc(F)cc4)o3)Cc3ccccc32)cn1 (centres unmarked) [X.10, [5-(4-fluorophenyl)-1,3,4-oxadiazol-2-yl]-[4-(1-methylpyrazol-4-yl)-3,4-dihydro-1H-isoquinolin-2-yl]methanone]
≥ 80%: pest or weed control at 200 ppm [6] | pest or weed control at 200 ppm (Pyrenophora teres) | inhibition of growth at 20 ppm [1] | inhibition of growth at 20 ppm [2] | inhibition of growth at 20 ppm [3]

Cn1ncc(C2CN(C(=O)c3cc(-c4ccc(F)cc4F)on3)Cc3ccccc32)c1Cl (centres unmarked) [X.11, [4-(5-chloro-1-methyl-pyrazol-4-yl)-3,4-dihydro-1H-isoquinolin-2-yl]-[5-(2,4-difluorophenyl)isoxazol-3-yl]methanone]
≥ 80%: pest or weed control at 200 ppm [6] | inhibition of growth at 20 ppm [5] | pest or weed control at 200 ppm (Pyrenophora teres) | inhibition of growth at 20 ppm [4] | inhibition of growth at 20 ppm [1] | inhibition of growth at 20 ppm [2] | inhibition of growth at 20 ppm [3]

Cn1ncc(C2CN(C(=O)c3cc(-c4ccc(F)cc4F)on3)Cc3ccccc32)c1F (centres unmarked) [X.12, [5-(2,4-difluorophenyl)isoxazol-3-yl]-[4-(5-fluoro-1-methyl-pyrazol-4-yl)-3,4-dihydro-1H-isoquinolin-2-yl]methanone]
≥ 80%: pest or weed control at 200 ppm [6] | inhibition of growth at 20 ppm [5] | pest or weed control at 200 ppm (Pyrenophora teres) | inhibition of growth at 20 ppm [4] | inhibition of growth at 20 ppm [1] | inhibition of growth at 20 ppm [2] | inhibition of growth at 20 ppm [3]

Cn1cc(C2c3ccccc3CN(C(=O)c3cc(-c4ccc(F)cc4F)on3)C2(C)C)cn1 (centres unmarked) [X.13, [5-(2,4-difluorophenyl)isoxazol-3-yl]-[3,3-dimethyl-4-(1-methylpyrazol-4-yl)-1,4-dihydroisoquinolin-2-yl]methanone]
≥ 80%: pest or weed control at 200 ppm [6] | inhibition of growth at 20 ppm [5] | pest or weed control at 200 ppm (Pyrenophora teres) | inhibition of growth at 20 ppm [4] | inhibition of growth at 20 ppm [1] | inhibition of growth at 20 ppm [2] | inhibition of growth at 20 ppm [3]

Cc1nn(C)c(C)c1C1CN(C(=O)c2cc(-c3ccc(F)cc3F)on2)Cc2ncccc21 (centres unmarked) [X.15, [5-(2,4-difluorophenyl)isoxazol-3-yl]-[5-(1,3,5-trimethylpyrazol-4-yl)-6,8-dihydro-5H-1,7-naphthyridin-7-yl]methanone]
≥ 80%: pest or weed control at 200 ppm (Pyrenophora teres) | inhibition of growth at 20 ppm [4] | inhibition of growth at 20 ppm [1] | inhibition of growth at 20 ppm [2] | inhibition of growth at 20 ppm [3]

Cn1cc(C2CN(C(=O)c3cc(C4CCCCC4)no3)Cc3ccccc32)cn1 (centres unmarked) [X.18, (3-cyclohexylisoxazol-5-yl)-[4-(1-methylpyrazol-4-yl)-3,4-dihydro-1H-isoquinolin-2-yl]methanone]
≥ 80%: inhibition of growth at 20 ppm [4] | inhibition of growth at 20 ppm [1] | inhibition of growth at 20 ppm [2] | inhibition of growth at 20 ppm [3]

Cn1cc(C2CN(C(=O)c3nnc(-c4ccccc4)o3)Cc3ccccc32)cn1 (centres unmarked) [X.19, [4-(1-methylpyrazol-4-yl)-3,4-dihydro-1H-isoquinolin-2-yl]-(5-phenyl-1,3,4-oxadiazol-2-yl)methanone]
≥ 80%: inhibition of growth at 20 ppm [5] | inhibition of growth at 20 ppm [4] | inhibition of growth at 20 ppm [1] | inhibition of growth at 20 ppm [2] | inhibition of growth at 20 ppm [3]

Cn1cc(C2CN(C(=O)c3cc(-c4ccncc4)on3)Cc3ccccc32)cn1 (centres unmarked) [X.23, [4-(1-methylpyrazol-4-yl)-3,4-dihydro-1H-isoquinolin-2-yl]-[5-(4-pyridyl)isoxazol-3-yl]methanone]
≥ 80%: inhibition of growth at 20 ppm [3]

Cc1c(C2CN(C(=O)c3nnc(-c4ncc(F)cc4F)s3)Cc3ccccc32)cnn1C (centres unmarked) [X.28, [5-(3,5-difluoro-2-pyridyl)-1,3,4-thiadiazol-2-yl]-[4-(1,5-dimethylpyrazol-4-yl)-3,4-dihydro-1H-isoquinolin-2-yl]methanone]
≥ 80%: pest or weed control at 200 ppm [6] | pest or weed control at 200 ppm (Pyrenophora teres) | inhibition of growth at 20 ppm [4] | inhibition of growth at 20 ppm [1] | inhibition of growth at 20 ppm [3]
